Legend:
[1] = BHV3000-201 open label long-term safety study, interim analysis; format: in vivo, human
Experimental: Clinical Trial—BHV3000-201: Open Label Safety Study in Acute Treatment of Migraine (ClinicalTrials.gov Identifier: NCT 03266588)
A phase 2/3 clinical study is conducted with about 2000 participants, as follows.
The purpose of this study is to evaluate safety and tolerability of BHV3000 (rimegepant).
Study Design • Study Type: Interventional (Clinical Trial) • Estimated Enrollment: 2000 participants • Intervention Model: Single Group Assignment • Masking: None (Open Label) • Primary Purpose: Treatment • Official Title: A Multicenter, Open Label Long-Term Safety Study of BHV3000 in the Acute Treatment of Migraine • Actual Study Start Date: Aug. 30, 2017 • Estimated Primary Completion Date: July 2019 • Estimated Study Completion Date: July 2019
1. To assess the safety and tolerability of rimegepant (BHV-3000) by measuring the frequency and severity of adverse events and discontinuations due to adverse events [Time Frame: 52 weeks]Number of subjects with treatment-emergent adverse events as assessed through laboratory tests, ECGs, physical exam findings (safety and tolerability)
1. ALT or AST >3×ULN with total bilirubin >2×ULN [Time Frame: 52 weeks]elevated liver function tests
2. hepatic related adverse events and hepatic related adverse events that lead to discontinuation [Time Frame: 52 weeks]adverse events related to liver
Patients were allowed to treat migraine attacks of all severities (mild to severe) up to once daily for a full year. The initial results for hepatic safety and tolerability of rimegepant 75 mg in study participants is based upon review of both adverse events and regularly scheduled liver function tests. Interim hepatic data were reviewed by an external and independent panel of liver experts. […] In the aggregate, it was noted that compared to migraine trials with drugs other than rimegepant, there was a very low incidence of overall elevations of liver function test abnormalities in rimegepant treated patients (1.0% incidence of serum ALT or AST >3x ULN). Subjects will continue to participate in Study 201 with additional data analyses to be submitted in the NDA and required 120-day safety updates.

[2] = BHV3000-301 Phase 3 trial: safety and tolerability; format: in vivo, human; settings: Study 301
Experimental: (§1) Methods • In a double-blind, randomized, placebo-controlled, multicenter study (Study 301, NCT03235479) adults ≥3.8 years of age with at least a 1-year history of ICHD 3-beta migraine were eligible to participate. Following a 3- to 28-day screening period, subjects were randomized to receive rimegepant 75 mg or matching placebo and instructed to treat a single migraine attack with 1 dose of the blinded study drug (rimegepant or placebo) when headache pain reached moderate or severe intensity. The coprimary endpoints were pain freedom at 2 hours postdose and freedom from the most bothersome symptom (MBS) at 2 hours postdose. Safety assessments included adverse events (AEs), ECGs, vital signs, physical measurements, and routine laboratory tests, including assessment of liver function. Unless stated otherwise, values presented are mean±SD.

[3] = human, in vivo
Experimental: Clinical Trial—BHV3000-303: Phase 3: Double-Blind, Randomized, Placebo-Controlled, Safety and Efficacy Trial of BHV-3000 (Rimegepant) Orally Discintegrating Tablet (ODT) for the Acute Treatment of Migraine (ClinicalTrials.gov Identifier: NCT03461757) • A phase 3 clinical study was conducted with 1812 participants, as follows.
Study Design • Study Type: Interventional (Clinical Trial) • Actual Enrollment: 1812 participants • Allocation: Randomized • Intervention Model: Parallel Assignment • Masking: Triple (Participant, Care Provider, Investigator) • Primary Purpose: Treatment • Official Title: BHV3000-303: Phase 3, Double-Blind, Randomized, Placebo Controlled, Safety and Efficacy Trial of BHV-3000 (Rimegepant) Orally Disintegrating Tablet (ODT) for the Acute Treatment of Migraine • Actual Study Start Date: Feb. 27, 2018 • Actual Primary Completion Date: Oct. 8, 2018 • Actual Study Completion Date: Oct. 15, 2018

[4] = BHV3000-302 Phase 3 trial: safety and tolerability; format: in vivo, human; settings: Study 302
Experimental: as §1, with “In” for “Methods • In”, “302, NCT03237845)” for “301, NCT03235479)”, “[…]” for “≥3.8”

[5] = Pooled safety data (AEs, liver function tests) of Studies 301, 302 and 303; format: in vivo, human
[6] = pooled 301, 302, 303, n = 1,771

With `N[C@@H]1c2cccnc2[C@H](OC(=O)N2CCC(n3c(=O)[nH]c4ncccc43)CC2)CC[C@H]1c1cccc(F)c1F` [Rimegepant, [(55,65,9R)-5-amino-6-(2,3-difluorophenyl)-6,7,8,9-tetrahydro-5H-cyclohepta[b]pyridin-9-yl]4-(2-oxo-3H-imidazo[4,5-b]pyridin-1-yl)piperidine-1-carboxylate] the “safety and tolerability of long-term dosing” value ([1]; Study 201 interim analysis) was “consistent with the profile observed in phase 1- 3 studies”, the “incidence of serum ALT or AST >3x ULN” value ([1]; Study 201 interim, 75 mg up to once daily) was 1.0% and the liver safety signal ([1]; Study 201 interim, incl. near-daily dosing (>=15 doses/month)) was “no liver safety signal detected”. For the same compound, the “liver cases assessed as probably related to study drug” value ([1]; Study 201 interim, independent liver panel) was “no liver cases”, the “SAE related to the study drug” value [2] was “No SAE” and the “bilirubin elevations >2 times ULN” value [2] was “No bilirubin elevations”. The “transaminase level >5 times ULN” value [2] was “no subject”, the “safety and tolerability profile” value ([2]; 75 mg oral tablet) was “favorable tolerability and safety” and the AE dizziness ([2]; 4/546 subjects) was 0.7%. The AE nausea ([2]; 5/546 subjects) was 0.9%, the “Serum ALT or AST levels greater than ULN” value ([2]; 11/546 subjects) was 2.0% and the “Serious AEs (SAEs)” value ([2]; n=2, both not dosed before onset) was 0.4%. The “LFTs >3xULN” value [3] was “one patient”, the safety and tolerability [3] was “consistent with the profile previously observed in Study 301” and the “highest incidence of any single adverse event (AE)” value ([3]; 48 h) was at most 1.6%. For the same compound, the “bilirubin elevations greater than 2 times ULN” value [4] was “no bilirubin elevations”, the “transaminase level greater than 3 times ULN” value [4] was “No subject” and the “safety and tolerability profile” value ([4]; 75 mg oral tablet) was “favorable tolerability and safety”. For the same compound, the “Serious AEs (SAEs)” value ([4]; back pain) was 1 subject, the “bilirubin elevations > 2x ULN” value ([5]; across Studies 301, 302 and 303) was “no patients” and the “ALT or AST >5x ULN, number of patients” value ([5]; pooled 301, 302, 303, AST elevation deemed not drug-related) was 1. For the same compound, the “ALT or AST >3x ULN, number of patients” value [5, 6] was 2, the “ALT or AST >3x ULN, percent” value [5, 6] was “(0.1%)” and the “ALT or AST >5x ULN, percent” value [5, 6] was “(0.06%)”. The “ALT or AST >10x ULN, number of patients” value [5, 6] was 0, the “ALT or AST >20x ULN, number of patients” value [5, 6] was 0 and the “ALT or AST >ULN, number of patients” value [5, 6] was 48. For the same compound, the “ALT or AST >ULN, percent” value [5, 6] was “(2.7%)”.

From patent US20210000814A1, “RIMEGEPANT FOR CGRP RELATED DISORDERS” (Biohaven Pharmaceutical Holding Company Ltd., priority 2018, published 2021)
